The subject of series [1] is Bacillus anthracis V770-NP1-R. Description: microbe, parasite or virus in culture. Type of series: cell-based. As to conditions: V770NP1R, read-out: MIC BA.
The test system of series [2] is Staphyloccocus aureus USA300. Description: Minimum inhibitory concentration, broth microdilution, Staphylococcus aureus. Type of series: cell-based. To be noted: for MIC: Staphylococcus aureus. Background: Dilution methods test growth across graded concentrations, often in twofold steps.
Series [3] deals with human Hela cells. Nature of the series: Mammalian cytotoxicity assay (CellTiter 96 AQueous One). In kind it is cell-based. As to conditions: 24 h, highest concentration tested 100 μM, read-out: IC50 human Hela cell proliferation.
Series [4] concerns Bacillus anthracis. Nature of the series: microbe, parasite or virus in culture. As to conditions: 1 h, read-out: reduction of BA culture viability.
The subject of series [5] is Staphylococcus aureus. Nature of the series: Minimum bactericidal concentration / bactericidal activity against SA. Type of series: cell-based. To be noted: for MBC (100% killing of SA): 24 hours, n=4.
Series [6] can be described thus: Pharmacokinetics of pyrrolomycin 4 in mice (LC-MS/MS of plasma).
For series [7], the system named is S. aureus biofilms. Description: Anti-staphylococcal biofilm activity (static biofilms, cfu). In kind it is cell-based, Staphylococcus aureus.
Where [8] appears, read: Staphyloccocus aureus USA300, n ≥ 3, read-out: MIC SA.

Here are results for 12 compounds from patent US10414725B2, “Pyrrolomycins and methods of using the same” (priority 2015, dated 2019).

Values after ≈ are worked out from the molar mass of the structure shown. Like-named read-outs stand apart in the source and are kept apart here.

As a reminder, the melting point is the temperature, or range, at which the solid turns liquid. Broadly, the AUC is concentration integrated over time. A lower AUC goes with low exposure.

`O=C(c1cc(F)cc(F)c1O)c1[nH]c(Br)c(Br)c1Br` [Compound 3]: the melting point lay within 151.8 to 152.7 °C. For the same compound, in series [1], the MIC stood at 0.031 µg/mL (≈ 0.0674 µM). Besides, in series [2] (setting [8]), the MIC was 0.17 µg/mL (≈ 0.37 µM). The IC50 in series [3] is greater than 46 µg/mL.
In the case of `O=C(c1cc(Br)c(F)[nH]1)c1cc(Cl)cc(Cl)c1O` [Compound 4], the MIC in series [1] amounted to 0.047 µg/mL (≈ 0.133 µM); in series [2] (USA300, read-out: MIC SA) it was 0.073 µg/mL (≈ 0.207 µM). Moreover, the inhibition at […] in series [4] turned out to be 60%. In addition, the “killing of SA” value in series [5] (4 μg/mL, no growth of colonies after incubation for 48 hours) came to 100%. Also, in series [5], the “MBC (100% killing of SA)” value is 4 µg/mL. Besides, the oral bioavailability in series [6] (10 mg/kg oral vs 1.0 mg/kg IV) came out at 35%. Further, the elimination half-life was 6.04 h in series [6] (IV) and 6.75 h in series [6] (oral). Also, the “time parent compound detectable in plasma” value in series [6] (IV and oral, detection limit 0.8 ng/mL) is “up to 72 hours”. The results for the exposure (AUC) in series [6] (IV dose 1 mg/kg) and in series [6] (oral dose 10 mg/kg) were 3800 ng·h/mL and 13200 ng·h/mL, respectively. Moreover, in series [3], the IC50 was greater than 35.3 µg/mL. The biofilm killing in series [7] (24 hours, 8.0 μg/mL, n=4) is listed as 84%; in series [7] (48 hours, 8.0 μg/mL) it was 97%; in series [7] (120 hours, 8.0 μg/mL), greater than 99.9%.
Turning to `COc1c(F)cc(F)cc1C(=O)c1ccc[nH]1` [Compound 8], the melting point was in the range of 85.7 to 87.1 °C. The MIC in series [1] was greater than 4 µg/mL. Moreover, the MIC in series [2] (setting [8]) was greater than 4 µg/mL.
Consider `O=C(c1ccc[nH]1)c1cc(F)cc(F)c1O` [Compound 9], for which the melting point was 161.7 to 162.5 °C. For the same compound, the MIC in series [1] is greater than 4 µg/mL. In addition, the MIC in series [2] (setting [8]) was greater than 4 µg/mL.
The compound `COc1c(F)cc(F)cc1C(=O)c1[nH]c(Br)c(Br)c1Br` [Compound 10] displayed a melting point of 178.9 to 179.7 °C. Moreover, the MIC in series [1] amounted to 1.5 µg/mL (≈ 3.17 µM). In addition, in series [2] (setting [8]), the MIC turned out to be 3 µg/mL (≈ 6.33 µM).
The compound `COc1c(F)cc(F)cc1C(=O)c1c(Br)c(Br)c(Br)n1C` [Compound 11] displayed a melting point of 107.4 to 108.1 °C. Also, in series [1], the MIC was greater than 4 µg/mL. In series [2] (setting [8]), the MIC is greater than 4 µg/mL.
The compound `Cn1c(Br)c(Br)c(Br)c1C(=O)c1cc(F)cc(F)c1O` [Compound 12] came in with a melting point of 156.2 to 157.2 °C. In addition, the MIC in series [1] is greater than 4 µg/mL. Further, the MIC in series [2] (setting [8]) was greater than 4 µg/mL.
As to `O=C(c1ccc[nH]1)c1cc(Cl)cc(Cl)c1O` [Compound 15], the MIC in series [1] was greater than 4 µg/mL; in series [2] (USA300, read-out: MIC SA) it was greater than 4 µg/mL.
For `O=C(c1cc(Br)c(Br)[nH]1)c1cc(Cl)cc(Cl)c1O` [Compound 17], the MIC in series [1] was determined as 0.188 µg/mL (≈ 0.454 µM); in series [2] (USA300, read-out: MIC SA) it was 0.073 µg/mL (≈ 0.176 µM). The IC50 in series [3] was greater than 41.4 µg/mL.
`O=C(c1cc(Cl)cc(Cl)c1O)c1[nH]c(F)c(Br)c1Br` [Compound 18] registered a melting point of 171.9 to 172.7 °C. Further, in series [1], the MIC came out at 0.125 µg/mL (≈ 0.289 µM). Moreover, the MIC in series [2] (setting [8]) came to 0.19 µg/mL (≈ 0.44 µM). The inhibition at […] in series [4] worked out at 92%. Besides, the IC50 in series [3] was greater than 43.2 µg/mL.
For the compound `O=C(c1cc(Br)c[nH]1)c1cc(Cl)cc(Cl)c1O` [Compound 19], in series [2] (Staphyloccocus aureus USA300, n ≥ 3), the “MIC SA” value was greater than 4.0 µg/mL. In series [2] (USA300, read-out: MIC SA), the MIC is greater than 4 µg/mL.
Regarding `CN[C@H](CC(C)C)C(=O)N[C@H]1C(=O)N[C@@H](CC(N)=O)C(=O)N[C@H]2C(=O)N[C@H]3C(=O)N[C@H](C(=O)N[C@H](C(=O)O)c4cc(O)cc(O)c4-c4cc3ccc4O)[C@H](O)c3ccc(c(Cl)c3)Oc3cc2cc(c3O[C@@H]2O[C@H](CO)[C@@H](O)[C@H](O)[C@H]2O[C@H]2C[C@](C)(N)[C@H](O)[C@H](C)O2)Oc2ccc(cc2Cl)[C@H]1O` [vancomycin, reference compound], the MIC in series [2] (setting [8]) was 2 µg/mL (≈ 1.38 µM). The “MBC (100% killing of SA)” value in series [5] is 8 µg/mL. The biofilm killing in series [7] (24 hours, 32 μg/mL, n=4) was 11%; in series [7] (120 hours, 32 μg/mL), 39%.
